Experimental data taken from patent US20050106236A1, “5-Ht4partial agonist pharmaceutical compositions” (priority 2001, published 2005).

Assay: Solubility of tegaserod in water
Assay type: physicochemical
Conditions: at 25° C. in water
Experimental: A preferred agent is tegaserod, a 5-HT4 partial agonist of formula [drawing 1] or pharmaceutically acceptable salt form thereof, e.g. the hydrogen maleate (hereinafter “hml”) salt. Tegaserod has a solubility of about 0.02% at 25° C. in water and is acid sensitive.

- solubility: about 0.02%
Structure (SMILES): CCCCCNC(=N)NN=Cc1c[nH]c2ccc(OC)cc12 [Tegaserod, 3-(5-methoxy-1H-Indol-3-yl-methylene)-N-pentylcarbazimidamide]
